Earlier results on one molecule are cited in US10874768B2, “Drug eluting medical device” (priority 2017, dated 2020).

SMILES strings stand for the structures.

For this data set the following is noted: human, 3 patients, 180 mg/m^2 infusion over 3 hours.

Usually Cmax stands for the highest concentration seen after dosing. Regarding `CC(=O)O[C@H]1C(=O)[C@@]2(C)[C@H]([C@H](OC(=O)c3ccccc3)[C@]3(O)C[C@H](OC(=O)[C@H](O)[C@@H](NC(=O)c4ccccc4)c4ccccc4)C(C)=C1C3(C)C)[C@]1(OC(C)=O)CO[C@@H]1C[C@@H]2O` [paclitaxel], the maximum concentration (Cmax) is 5.23 µM.
